Read-outs that look alike come from different tables or passages of the source.
What was measured:
[1] = system: A431 cells; assay: Fluorescence-based cytotoxicity assay, parental A431 eGFP; details: Homo sapiens
[2] = system: OATP2B1; assay: Fluorescence-based cytotoxicity assay, OATP2B1-expressing A431-2B1 mCh; details: human
[3] = system: A431-G2 cells (ABCG2 expressing); assay: Fluorescence-based cytotoxicity assay, ABCG2-expressing A431-G2 mOr
[4] = system: Mes-Sa-B1 cells (Pgp overexpressing); assay: Fluorescence-based cytotoxicity assay, Mes-Sa-B1 mOr; details: for SR (Mes-Sa-B1): selectivity ratio = IC50 parental Mes-Sa / IC50 Mes-Sa-B1
[5] = system: Mes-Sa/Dx5 cells; assay: Fluorescence-based cytotoxicity assay, Mes-Sa/Dx5 eGFP; details: triple co-culture screen; for SR (Mes-Sa/DX5): selectivity ratio = IC50 parental Mes-Sa / IC50 Mes-Sa/Dx5; for RR (Dx5): resistance ratio = IC50 Mes-Sa/Dx5 / IC50 parental Mes-Sa
[6] = system: A431-B1 cells (ABCB1/P-glycoprotein expressing); assay: Fluorescence-based cytotoxicity assay, ABCB1-expressing A431-B1 mCh
[7] = resistance ratio = IC50 Mes-Sa-B1 / IC50 parental Mes-Sa, triple co-culture screen
[8] = resistance ratio = IC50 A431B1 / IC50 parental A431, triple co-culture screen
[9] = triple co-culture, result in words

Compound: CCc1c2c(nc3ccc(OC(=O)N4CCC(N5CCCCC5)CC4)cc13)-c1cc3c(c(=O)n1C2)COC(=O)[C@]3(O)CC [NSC-616348, Irinotecan]
- IC50 ([1]; A-431, read-out: IC50 (µM) A431 eGFP, co-culture): 13.8 µM
- IC50 ([1]; A-431, read-out: IC50 (µM) A431 eGFP, monoculture): 11.1 µM
- Effect of ABCG2 expression on toxicity (A431-G2 vs parental A431) [3]: conferred resistance

Compound: Nc1nc2[nH]cc(CCc3ccc(C(=O)N[C@@H](CCC(=O)O)C(=O)O)cc3)c2c(=O)[nH]1 [NSC-698037, Pemetrexed]
- SR (Mes-Sa-B1) ([4]; triple co-culture screen): 1.14
- SR (Mes-Sa/DX5) [5]: 3.29

Compound: Cc1nc(Nc2ncc(C(=O)Nc3c(C)cccc3Cl)s2)cc(N2CCN(CCO)CC2)n1 [NSC-732517, Dasatinib]
- RR (Mes-Sa-B1) [4, 7]: 3.147
- RR (A431B1) [6]: 11.5
- RR (Dx5) [5]: > 3.60
- Effect of ABCG2 expression on toxicity (A431-G2 vs parental A431) [3]: conferred resistance

Compound: Cc1cn(-c2cc(NC(=O)c3ccc(C)c(Nc4nccc(-c5cccnc5)n4)c3)cc(C(F)(F)F)c2)cn1 [NSC-747599, Nilotinib]
- SR (Mes-Sa-B1) ([4]; triple co-culture screen): 1.23
- SR (Mes-Sa/DX5) [5]: 4.68

Compound: C/C(=C\c1csc(C)n1)[C@@H]1C[C@@H]2O[C@]2(C)CCC[C@H](C)[C@H](O)[C@@H](C)C(=O)C(C)(C)[C@@H](O)CC(=O)N1 [NSC-747973, Ixabepilone]
- RR (Mes-Sa-B1) [4]: >208.3
- RR (A431B1) [6]: 23.32
- RR (Dx5) [5]: 9.66

Compound: C/C=C1\NC(=O)[C@H]2CSSCC/C=C/[C@H](CC(=O)N[C@H](C(C)C)C(=O)N2)OC(=O)[C@H](C(C)C)NC1=O [NSC-754143, Romidepsin]
- RR (Mes-Sa-B1) [4]: 331.70
- RR (A431B1) [6]: > 97
- RR (Dx5) [5]: > 234.15

Compound: CS(=O)(=O)c1ccc(C(=O)Nc2ccc(Cl)c(-c3ccccn3)c2)c(Cl)c1 [NSC-755986, Vismodegib]
- SR (Mes-Sa/DX5) [5]: > 3.31

Compound: CC(C)C[C@H](NC(=O)[C@H](CCc1ccccc1)NC(=O)CN1CCOCC1)C(=O)N[C@@H](Cc1ccccc1)C(=O)N[C@@H](CC(C)C)C(=O)[C@@]1(C)CO1 [NSC-758252, Carfilzomib]
- RR (Mes-Sa-B1) [4, 7]: 55.50
- RR (A431B1) [6, 8]: 47.4
- RR (Dx5) [5]: 88.00

Compound: CO[C@H]1C(=O)[C@]2(C)[C@@H](OC)C[C@H]3OC[C@@]3(OC(C)=O)[C@H]2[C@H](OC(=O)c2ccccc2)[C@]2(O)C[C@H](OC(=O)[C@H](O)[C@@H](NC(=O)OC(C)(C)C)c3ccccc3)C(C)=C1C2(C)C [NSC-761432, Cabazitaxel]
- RR (Mes-Sa-B1) [4, 7]: 63.00
- RR (A431B1) [6, 8]: 6.00
- RR (Dx5) [5]: > 107.00

Compound: CC(C)C[C@H](NC(=O)[C@H](Cc1ccccc1)NC(=O)c1cnccn1)B(O)O [bortezomib]
- RR (Mes-Sa-B1) [4, 7]: 4.3
- RR (A431B1) [6, 8]: 2.7
- RR (Dx5) [5]: 17

Compound: C[C@@H](Oc1cc(-c2cnn(C3CCNCC3)c2)cnc1N)c1c(Cl)ccc(F)c1Cl [crizotinib]
- RR (Mes-Sa-B1) [4, 7]: 9.9
- RR (A431B1) [6, 8]: 2.6
- RR (Dx5) [5]: 21.3

Compound: COc1cc2ncnc(Nc3ccc(F)c(Cl)c3)c2cc1OCCCN1CCOCC1 [gefitinib]
- Effect of ABCG2 expression on toxicity (A431-G2 vs parental A431) [3, 9]: conferred resistance

Compound: CS(=O)(=O)CCNCc1ccc(-c2ccc3ncnc(Nc4ccc(OCc5cccc(F)c5)c(Cl)c4)c3c2)o1 [lapatinib]
- Effect of ABCG2 expression on toxicity (A431-G2 vs parental A431) [3, 9]: conferred resistance

Compound: CC[C@@]1(O)C(=O)OCc2c1cc1n(c2=O)Cc2cc3c(CN(C)C)c(O)ccc3nc2-1 [topotecan]
- Effect of ABCG2 expression on toxicity (A431-G2 vs parental A431) [3, 9]: conferred resistance

Source: PMC6510822, “Identification of anticancer OATP2B1 substrates by an in vitro triple-fluorescence-based cytotoxicity screen” (Archives of Toxicology, 2019)
